Source: PMC6516726 (ACS Catalysis, 2018)
Where two headings read alike, the source gives them in different places.

How the values were obtained:
L25I PETNR = L25I PETNR (Enterobacter cloacae, UniProt P71278, L26I); settings: for kobs1 / A2 (amplitude of kobs2 out of total absorbance change) / kobs2: 10 mM NADPH or 25 mM NADH, pH 7.0
WT PETNR = WT PETNR (Enterobacter cloacae, UniProt P71278); experiment: Stopped-flow FMN reduction (reductive half-reaction, hydride transfer) of WT PETNR by coenzyme; settings: for kobs1: 10 mM NADPH or 25 mM NADH, pH 7.0
L25A PETNR = L25A PETNR (Enterobacter cloacae, UniProt P71278, L26A); settings: for kobs1 / A2 (amplitude of kobs2 out of total absorbance change) / kobs2: pH 7.0
[1] = 25 °C, 50 mM potassium phosphate pH 7.0, 20 μM enzyme
[2] = 25 °C, 50 mM potassium phosphate pH 7.0, 20 μM enzyme, fast phase
[3] = T0 = 298 K, fit of kobs1 (5–40 °C) to eq 1
[4] = 25 °C, 10 mM NADPH or 25 mM NADH
[5] = 30 °C, 10 mM NADPH or 25 mM NADH
[6] = 35 °C, 10 mM NADPH or 25 mM NADH
[7] = 40 °C, third phase, 10 mM NADPH or 25 mM NADH
[8] = 40 °C, 10 mM NADPH or 25 mM NADH

Sequence of L25I PETNR (P71278 entry or part of it L26I): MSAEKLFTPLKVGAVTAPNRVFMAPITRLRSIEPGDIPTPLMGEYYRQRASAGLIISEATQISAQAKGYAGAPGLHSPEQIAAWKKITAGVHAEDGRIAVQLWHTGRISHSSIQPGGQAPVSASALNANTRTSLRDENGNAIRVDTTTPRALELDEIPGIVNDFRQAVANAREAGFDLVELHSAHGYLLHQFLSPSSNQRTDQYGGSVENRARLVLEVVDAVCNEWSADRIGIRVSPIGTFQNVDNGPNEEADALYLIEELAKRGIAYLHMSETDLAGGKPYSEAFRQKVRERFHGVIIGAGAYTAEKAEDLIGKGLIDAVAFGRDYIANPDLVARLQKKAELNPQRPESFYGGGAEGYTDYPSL
Sequence of WT PETNR (P71278 entry or part of it): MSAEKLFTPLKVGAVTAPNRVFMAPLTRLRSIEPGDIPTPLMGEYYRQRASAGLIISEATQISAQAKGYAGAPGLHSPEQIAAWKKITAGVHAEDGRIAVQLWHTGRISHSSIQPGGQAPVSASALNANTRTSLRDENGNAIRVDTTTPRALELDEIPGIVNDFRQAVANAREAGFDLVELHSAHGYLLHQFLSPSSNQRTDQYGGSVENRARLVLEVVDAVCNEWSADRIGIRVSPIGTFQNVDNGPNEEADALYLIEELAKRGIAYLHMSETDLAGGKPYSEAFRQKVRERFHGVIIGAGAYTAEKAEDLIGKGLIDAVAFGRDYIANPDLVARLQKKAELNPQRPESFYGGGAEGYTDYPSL
Sequence of L25A PETNR (P71278 entry or part of it L26A): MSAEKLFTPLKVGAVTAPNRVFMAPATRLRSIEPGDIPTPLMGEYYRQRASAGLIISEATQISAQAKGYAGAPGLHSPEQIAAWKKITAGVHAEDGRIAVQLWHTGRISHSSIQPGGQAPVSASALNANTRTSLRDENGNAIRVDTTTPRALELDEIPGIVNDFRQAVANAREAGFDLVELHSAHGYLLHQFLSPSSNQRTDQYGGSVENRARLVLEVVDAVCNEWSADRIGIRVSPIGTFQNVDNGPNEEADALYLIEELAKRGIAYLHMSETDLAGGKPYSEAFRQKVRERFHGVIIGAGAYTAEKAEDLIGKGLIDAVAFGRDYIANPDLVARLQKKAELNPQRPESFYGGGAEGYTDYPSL

SMILES: NC(=O)C1=CN([C@@H]2O[C@H](COP(=O)(O)OP(=O)(O)OC[C@H]3O[C@@H](n4cnc5c(N)ncnc54)[C@H](O)[C@@H]3O)[C@@H](O)[C@H]2O)C=CC1 [NADH]
- kobs1 (L25I PETNR; 5 °C): 0.49 ± 0.01 s⁻¹
- kobs1 (L25I PETNR; 10 °C): 0.66 ± 0.01 s⁻¹
- kobs1 (L25I PETNR; 15 °C): 0.90 ± 0.01 s⁻¹
- kobs1 (L25I PETNR; 20 °C): 1.20 ± 0.01 s⁻¹
- KS (L25I PETNR; [1]): 306 ± 40 µM
- kred (L25I PETNR; [2]): 1.74 ± 0.04 s^–1
- A2 (amplitude of kobs2 out of total absorbance change) (L25I PETNR; 25 °C): 6.40 ± 2.07%
- kobs1 (L25I PETNR; 25 °C): 1.77 ± 0.06 s⁻¹
- kobs2 (L25I PETNR; 25 °C): 0.36 ± 0.10 s⁻¹
- A2 (amplitude of kobs2 out of total absorbance change) (L25I PETNR; 30 °C): 6.86 ± 1.61%
- kobs1 (L25I PETNR; 30 °C): 2.39 ± 0.06 s⁻¹
- kobs2 (L25I PETNR; 30 °C): 0.39 ± 0.09 s⁻¹
- A2 (amplitude of kobs2 out of total absorbance change) (L25I PETNR; 35 °C): 8.92 ± 1.01%
- kobs1 (L25I PETNR; 35 °C): 3.26 ± 0.07 s⁻¹
- kobs2 (L25I PETNR; 35 °C): 0.49 ± 0.07 s⁻¹
- A2 (amplitude of kobs2 out of total absorbance change) (L25I PETNR; 40 °C): 12.28 ± 1.93%
- kobs1 (L25I PETNR; 40 °C): 4.26 ± 0.13 s⁻¹
- kobs2 (L25I PETNR; 40 °C): 0.58 ± 0.05 s⁻¹
- ΔCp^⧧ (L25I PETNR; [3]): 0.32 ± 0.18 kJ mol^–1 K^–1
- ΔHT0^⧧ (L25I PETNR; [3]): 42.7 ± 1.7 kJ mol^–1
- ΔST0^⧧ (L25I PETNR; [3]): –97.7 ± 6.0 J mol^–1 K^–1
- kobs1 (WT PETNR; 5 °C): 0.73 ± 0.01 s⁻¹
- kobs1 (WT PETNR; 10 °C): 0.92 ± 0.01 s⁻¹
- kobs1 (WT PETNR; 15 °C): 1.17 ± 0.01 s⁻¹
- kobs1 (WT PETNR; 20 °C): 1.51 ± 0.01 s⁻¹
- KS (WT PETNR; [1]): 1067 ± 13 µM
- kred (WT PETNR; [2]): 2.03 ± 0.01 s^–1
- kobs1 (WT PETNR; 25 °C): 1.95 ± 0.01 s⁻¹
- kobs1 (WT PETNR; 30 °C): 2.53 ± 0.02 s⁻¹
- kobs1 (WT PETNR; 35 °C): 3.30 ± 0.01 s⁻¹
- kobs1 (WT PETNR; 40 °C): 4.25 ± 0.02 s⁻¹
- ΔCp^⧧ (WT PETNR; [3]): 0.39 ± 0.03 kJ mol^–1 K^–1
- ΔHT0^⧧ (WT PETNR; [3]): 35.4 ± 0.1 kJ mol^–1
- ΔST0^⧧ (WT PETNR; [3]): –120.5 ± 0.5 J mol^–1 K^–1
- kobs1 (L25A PETNR; 5 °C, 10 mM NADPH or 25 mM NADH): 1.27 ± 0.01 s⁻¹
- kobs1 (L25A PETNR; 10 °C, 10 mM NADPH or 25 mM NADH): 1.61 ± 0.01 s⁻¹
- kobs1 (L25A PETNR; 15 °C, 10 mM NADPH or 25 mM NADH): 2.03 ± 0.01 s⁻¹
- kobs1 (L25A PETNR; 20 °C, 10 mM NADPH or 25 mM NADH): 2.63 ± 0.03 s⁻¹
- KS (L25A PETNR; [1]): 2294 ± 91 µM
- kred (L25A PETNR; [2]): 3.62 ± 0.04 s^–1
- A2 (amplitude of kobs2 out of total absorbance change) (L25A PETNR; [4]): 2.29 ± 0.92%
- kobs1 (L25A PETNR; [4]): 3.33 ± 0.07 s⁻¹
- kobs2 (L25A PETNR; [4]): 0.09 ± 0.06 s⁻¹
- A2 (amplitude of kobs2 out of total absorbance change) (L25A PETNR; [5]): 4.93 ± 0.85%
- kobs1 (L25A PETNR; [5]): 4.23 ± 0.06 s⁻¹
- kobs2 (L25A PETNR; [5]): 0.08 ± 0.01 s⁻¹
- A2 (amplitude of kobs2 out of total absorbance change) (L25A PETNR; [6]): 12.72 ± 0.74%
- kobs1 (L25A PETNR; [6]): 5.20 ± 0.11 s⁻¹
- kobs2 (L25A PETNR; [6]): 0.11 ± 0.01 s⁻¹
- A3 (amplitude of third phase) (L25A PETNR; [7]): 19.01 ± 3.17%
- kobs3 (L25A PETNR; [7]): 1.10 ± 0.0
- A2 (amplitude of kobs2 out of total absorbance change) (L25A PETNR; [8]): 20.40 ± 1.48%
- kobs1 (L25A PETNR; [8]): 6.74 ± 0.37 s⁻¹
- kobs2 (L25A PETNR; [8]): 0.13 ± 0.01 s⁻¹
- ΔCp^⧧ (L25A PETNR; [3]): 0.28 ± 0.05 kJ mol^–1 K^–1
- ΔHT0^⧧ (L25A PETNR; [3]): 33.6 ± 0.5 kJ mol^–1
- ΔST0^⧧ (L25A PETNR; [3]): –122.1 ± 1.7 J mol^–1 K^–1
